Assay results taken from ChEMBL document CHEMBL4152198, “The development of Bruton's tyrosine kinase (BTK) inhibitors from 2012 to 2017: A mini-review” (Eur J Med Chem, 2018).
Blank lines part the entries; values can stand above or below the compound they belong to.

What was measured:
[1] = target: T1, Tyrosine-protein kinase BTK (Homo sapiens, UniProt Q06187); test: Inhibition of BTK (unknown origin)
[2] = target: T1, Tyrosine-protein kinase BTK; test: Binding affinity to BTK in human Ramos cells assessed as protein occupancy at 20 hrs post compound wash out; format: cell-based
[3] = target: T2, Tyrosine-protein kinase JAK3 (Homo sapiens, UniProt P52333); test: Inhibition of JAK3 (unknown origin)
T2 sequence (P52333 whole entry): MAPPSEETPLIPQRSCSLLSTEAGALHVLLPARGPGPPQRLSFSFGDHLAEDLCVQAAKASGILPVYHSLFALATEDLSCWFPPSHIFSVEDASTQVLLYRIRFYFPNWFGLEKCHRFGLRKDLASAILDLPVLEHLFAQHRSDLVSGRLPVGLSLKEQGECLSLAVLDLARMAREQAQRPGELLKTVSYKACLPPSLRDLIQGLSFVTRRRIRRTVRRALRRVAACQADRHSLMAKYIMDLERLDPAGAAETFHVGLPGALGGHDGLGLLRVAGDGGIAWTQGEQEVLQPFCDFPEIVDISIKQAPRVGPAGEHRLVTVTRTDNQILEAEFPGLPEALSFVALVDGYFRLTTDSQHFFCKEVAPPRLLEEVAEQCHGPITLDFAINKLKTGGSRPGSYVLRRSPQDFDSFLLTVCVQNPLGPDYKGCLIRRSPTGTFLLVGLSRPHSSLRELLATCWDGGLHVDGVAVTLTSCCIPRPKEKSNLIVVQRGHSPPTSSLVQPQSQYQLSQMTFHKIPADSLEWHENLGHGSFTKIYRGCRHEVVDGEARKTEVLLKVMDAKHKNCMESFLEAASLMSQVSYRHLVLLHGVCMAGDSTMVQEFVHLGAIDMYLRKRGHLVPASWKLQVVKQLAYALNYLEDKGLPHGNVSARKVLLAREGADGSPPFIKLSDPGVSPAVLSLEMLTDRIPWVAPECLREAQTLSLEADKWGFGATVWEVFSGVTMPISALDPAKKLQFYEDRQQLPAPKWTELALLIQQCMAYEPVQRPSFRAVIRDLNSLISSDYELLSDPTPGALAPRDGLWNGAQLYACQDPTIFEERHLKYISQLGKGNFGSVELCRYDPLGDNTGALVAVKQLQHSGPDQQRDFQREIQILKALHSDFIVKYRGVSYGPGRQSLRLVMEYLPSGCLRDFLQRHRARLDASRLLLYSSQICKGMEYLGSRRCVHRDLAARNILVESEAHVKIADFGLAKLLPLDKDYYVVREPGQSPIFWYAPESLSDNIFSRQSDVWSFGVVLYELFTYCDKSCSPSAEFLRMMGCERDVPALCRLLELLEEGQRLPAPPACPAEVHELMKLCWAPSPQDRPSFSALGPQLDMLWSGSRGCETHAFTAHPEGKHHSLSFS

Homo sapiens [4] = species on record: Homo sapiens; test: Selectivity for BTK (unknown origin) over EGFR (unknown origin)
[5] = target: Ribosomal protein S6 kinase alpha-3 (Homo sapiens, UniProt P51812); test: Binding affinity to RPS6KA3 (unknown origin)
[6] = target: T1, Tyrosine-protein kinase BTK; test: Binding affinity to BTK (unknown origin) assessed as residence time
Homo sapiens [7] = species on record: Homo sapiens; test: Selectivity for BTK (unknown origin) over ITK (unknown origin)
Homo sapiens [8] = species on record: Homo sapiens; test: Selectivity for BTK (unknown origin) over JAK3 (unknown origin)
[9] = target: Tyrosine-protein kinase Lyn (Homo sapiens, UniProt P07948); test: Inhibition of LYN (unknown origin)
[10] = target: T3, Tyrosine-protein kinase Tec (Homo sapiens, UniProt P42680); test: Inhibition of TEC (unknown origin)
T3 sequence (P42680 whole entry): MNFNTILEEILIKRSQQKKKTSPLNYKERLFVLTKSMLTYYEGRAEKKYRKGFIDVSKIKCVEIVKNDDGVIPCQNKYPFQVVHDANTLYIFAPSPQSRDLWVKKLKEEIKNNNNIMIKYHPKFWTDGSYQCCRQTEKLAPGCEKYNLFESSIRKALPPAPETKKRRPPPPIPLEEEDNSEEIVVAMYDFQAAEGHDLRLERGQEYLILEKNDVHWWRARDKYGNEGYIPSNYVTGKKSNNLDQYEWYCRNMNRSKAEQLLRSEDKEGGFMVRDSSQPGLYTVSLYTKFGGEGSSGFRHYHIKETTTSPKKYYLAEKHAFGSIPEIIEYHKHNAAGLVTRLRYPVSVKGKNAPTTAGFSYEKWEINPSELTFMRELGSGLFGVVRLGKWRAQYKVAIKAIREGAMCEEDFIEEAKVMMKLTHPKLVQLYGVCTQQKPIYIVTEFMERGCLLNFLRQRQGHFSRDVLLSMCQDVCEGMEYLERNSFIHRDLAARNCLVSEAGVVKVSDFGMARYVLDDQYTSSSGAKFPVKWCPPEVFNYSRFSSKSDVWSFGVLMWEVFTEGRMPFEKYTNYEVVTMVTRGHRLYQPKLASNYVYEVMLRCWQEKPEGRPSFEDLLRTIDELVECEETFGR

[11] = target: Receptor tyrosine-protein kinase erbB-4 (Homo sapiens, UniProt Q15303); test: Inhibition of ErbB4/HER4 (unknown origin)
Receptor tyrosine-protein kinase erbB-4, sequence (Q15303 whole entry): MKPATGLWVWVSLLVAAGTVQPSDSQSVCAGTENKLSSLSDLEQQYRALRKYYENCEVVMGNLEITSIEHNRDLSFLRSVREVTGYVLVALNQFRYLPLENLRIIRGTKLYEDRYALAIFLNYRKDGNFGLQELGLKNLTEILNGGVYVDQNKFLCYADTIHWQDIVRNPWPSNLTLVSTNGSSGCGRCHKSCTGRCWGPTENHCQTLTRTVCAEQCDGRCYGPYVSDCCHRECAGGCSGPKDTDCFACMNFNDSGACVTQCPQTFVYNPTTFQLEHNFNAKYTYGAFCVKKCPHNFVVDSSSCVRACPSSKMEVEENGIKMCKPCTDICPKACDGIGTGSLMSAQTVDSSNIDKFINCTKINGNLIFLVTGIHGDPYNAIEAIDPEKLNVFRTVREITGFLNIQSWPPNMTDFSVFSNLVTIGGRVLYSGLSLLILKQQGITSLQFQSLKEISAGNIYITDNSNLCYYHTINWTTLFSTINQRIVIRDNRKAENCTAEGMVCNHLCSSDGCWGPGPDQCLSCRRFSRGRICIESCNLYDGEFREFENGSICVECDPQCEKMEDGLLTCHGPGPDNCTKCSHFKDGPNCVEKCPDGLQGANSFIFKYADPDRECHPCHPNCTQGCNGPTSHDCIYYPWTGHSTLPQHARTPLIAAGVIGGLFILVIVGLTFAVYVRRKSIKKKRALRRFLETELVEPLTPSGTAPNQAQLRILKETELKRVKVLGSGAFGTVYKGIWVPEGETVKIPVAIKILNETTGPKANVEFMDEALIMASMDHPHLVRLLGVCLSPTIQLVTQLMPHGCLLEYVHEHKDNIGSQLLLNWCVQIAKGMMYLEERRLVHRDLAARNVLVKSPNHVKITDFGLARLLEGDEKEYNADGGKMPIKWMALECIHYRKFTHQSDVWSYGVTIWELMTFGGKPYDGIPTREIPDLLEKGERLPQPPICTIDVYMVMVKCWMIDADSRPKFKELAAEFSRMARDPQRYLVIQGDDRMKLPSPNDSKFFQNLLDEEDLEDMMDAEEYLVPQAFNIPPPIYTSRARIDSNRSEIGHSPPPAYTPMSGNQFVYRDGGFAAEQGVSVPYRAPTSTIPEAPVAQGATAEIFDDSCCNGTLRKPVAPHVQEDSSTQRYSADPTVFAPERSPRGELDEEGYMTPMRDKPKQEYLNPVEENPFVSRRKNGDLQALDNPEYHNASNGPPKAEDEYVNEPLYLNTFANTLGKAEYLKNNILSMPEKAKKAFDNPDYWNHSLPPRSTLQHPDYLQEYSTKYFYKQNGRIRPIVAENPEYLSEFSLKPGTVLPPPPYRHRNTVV

T1 sequence (Q06187 whole entry): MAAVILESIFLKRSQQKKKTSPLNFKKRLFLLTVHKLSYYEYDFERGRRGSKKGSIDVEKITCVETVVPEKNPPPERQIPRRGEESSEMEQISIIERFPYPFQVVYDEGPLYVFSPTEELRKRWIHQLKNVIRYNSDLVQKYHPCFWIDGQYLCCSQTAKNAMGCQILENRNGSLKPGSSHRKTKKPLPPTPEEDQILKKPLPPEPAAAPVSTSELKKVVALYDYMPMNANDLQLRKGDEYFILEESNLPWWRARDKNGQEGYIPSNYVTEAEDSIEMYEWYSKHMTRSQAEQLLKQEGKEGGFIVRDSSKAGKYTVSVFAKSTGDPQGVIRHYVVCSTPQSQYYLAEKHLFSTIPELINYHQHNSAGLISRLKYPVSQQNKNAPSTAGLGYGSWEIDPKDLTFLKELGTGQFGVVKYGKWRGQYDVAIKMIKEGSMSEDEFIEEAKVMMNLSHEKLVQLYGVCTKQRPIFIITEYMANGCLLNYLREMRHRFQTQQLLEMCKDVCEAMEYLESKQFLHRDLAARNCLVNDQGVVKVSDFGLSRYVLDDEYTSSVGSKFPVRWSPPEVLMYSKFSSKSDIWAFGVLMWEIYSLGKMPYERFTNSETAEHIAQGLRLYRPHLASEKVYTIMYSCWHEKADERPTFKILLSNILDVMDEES
Tyrosine-protein kinase Lyn, sequence (P07948 whole entry): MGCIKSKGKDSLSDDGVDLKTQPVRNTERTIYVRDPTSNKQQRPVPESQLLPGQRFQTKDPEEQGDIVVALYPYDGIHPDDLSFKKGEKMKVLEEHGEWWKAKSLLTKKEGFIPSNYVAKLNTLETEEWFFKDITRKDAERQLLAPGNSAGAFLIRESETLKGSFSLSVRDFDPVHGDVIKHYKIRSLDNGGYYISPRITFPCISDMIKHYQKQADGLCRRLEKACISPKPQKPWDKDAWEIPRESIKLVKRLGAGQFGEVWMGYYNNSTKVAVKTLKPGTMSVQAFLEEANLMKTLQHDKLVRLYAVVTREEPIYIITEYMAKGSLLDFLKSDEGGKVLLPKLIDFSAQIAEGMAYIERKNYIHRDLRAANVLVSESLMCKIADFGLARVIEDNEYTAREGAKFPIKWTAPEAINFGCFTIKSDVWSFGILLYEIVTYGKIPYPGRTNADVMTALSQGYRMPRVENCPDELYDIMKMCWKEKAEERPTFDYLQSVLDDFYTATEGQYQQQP
Ribosomal protein S6 kinase alpha-3, sequence (P51812 whole entry): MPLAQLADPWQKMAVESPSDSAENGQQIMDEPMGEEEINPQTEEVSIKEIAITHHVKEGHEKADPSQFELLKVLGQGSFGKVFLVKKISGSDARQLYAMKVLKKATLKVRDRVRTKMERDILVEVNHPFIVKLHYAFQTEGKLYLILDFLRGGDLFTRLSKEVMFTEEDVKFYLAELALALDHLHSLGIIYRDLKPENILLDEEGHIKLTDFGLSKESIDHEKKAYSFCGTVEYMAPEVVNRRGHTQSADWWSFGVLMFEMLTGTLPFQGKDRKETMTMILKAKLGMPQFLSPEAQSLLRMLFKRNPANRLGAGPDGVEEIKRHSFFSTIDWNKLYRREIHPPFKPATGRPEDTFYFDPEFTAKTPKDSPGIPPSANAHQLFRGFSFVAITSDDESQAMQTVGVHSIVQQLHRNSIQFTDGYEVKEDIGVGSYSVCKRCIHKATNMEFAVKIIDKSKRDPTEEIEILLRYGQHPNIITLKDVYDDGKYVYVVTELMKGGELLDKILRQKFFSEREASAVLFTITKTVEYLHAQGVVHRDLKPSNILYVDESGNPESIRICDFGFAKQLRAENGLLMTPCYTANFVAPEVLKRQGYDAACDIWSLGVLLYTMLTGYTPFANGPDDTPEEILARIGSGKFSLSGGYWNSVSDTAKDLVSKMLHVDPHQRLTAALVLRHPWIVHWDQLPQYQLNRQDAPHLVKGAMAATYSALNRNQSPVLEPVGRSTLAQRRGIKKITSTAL

IC50 [1]: 4 nM
Occ [2]: 55%
IC50 [3]: > 5000 nM
SMILES: CC(C)(C)/C=C(/C#N)C(=O)N1CCC[C@@H](n2nc(-c3ccc(Oc4ccccc4)cc3)c3c(N)ncnc32)C1

Selectivity ratio (Homo sapiens [4]): > 1000
Kd [5]: 0.54 nM
TIME [6]: 161 h
Selectivity ratio (Homo sapiens [7]): 60
Selectivity ratio (Homo sapiens [8]): > 1000
SMILES: CN(C1COC1)C(C)(C)/C=C(\C#N)C(=O)N1CCC[C@H]1Cn1nc(-c2ccc(Oc3ccccc3)cc2F)c2c(N)ncnc21

IC50 [9]: 4400 nM
IC50 [10]: 6.2 nM
SMILES: C=CC(=O)Nc1cccc(Nc2nc(Nc3ccc(OCCOC)cc3)ncc2F)c1 [SPEBRUTINIB]

IC50 [11]: 11.3 nM
SMILES: CC(C)(/C=C(\C#N)C(=O)N1CCC[C@H](n2nc(-c3ccc(Oc4ccccc4)cc3F)c3c(N)ncnc32)C1)N1CCN(C2COC2)CC1

IC50 [1]: 2 nM
SMILES: Cc1cc2[nH]ncc2cc1-c1cccc2c(N)c(C(N)=O)nnc12

IC50 [1]: 652 nM
SMILES: C=CC(=O)Nc1cccc(Oc2nc(Nc3ccc(N4CCN(C)CC4)cc3)nc3ccoc23)c1 [POSELTINIB]
